The record followed here is ChEMBL document CHEMBL3865786, “Scaffold-hopping of bioactive flavonoids: Discovery of aryl-pyridopyrimidinones as potent anticancer agents that inhibit catalytic role of topoisomerase IIα” (Eur J Med Chem, 2016).

The source made the active and inactive calls. The calls are words filed in the database; no cut-off is given here.

The nature of data set [1]: Cytotoxicity against African green monkey Vero cells assessed as reduction in cell viability after 48 hrs by MTT assay. Format: toxicity, cell-based. The following applies: chlorocebus sabaeus; for CC50 at 48 h: Vero cells, read-out: LC50; for Activity: vero, 48 h. (In general: Formazan colour is commonly taken as a measure of viable cells.)
Data set [2] can be described thus: (§1) Cytotoxicity against HEK293 cells assessed as reduction in cell viability after 48 hrs by MTT assay. Format: functional. The following applies: Homo sapiens, HEK293, 48 h; read-out: LC50 (the source's name).
Data set [3] addresses DNA topoisomerase 2-alpha (Homo sapiens) (UniProt P11388). Put plainly: Inhibition of human DNA topoisomerase 2alpha-mediated decatenation of kinetoplast DNA at 100 uM after 30 mins by agarose gel electrophoresis.
Data set [4] in a line: Cytotoxicity against human MCF7 cells assessed as reduction in cell viability after 48 hrs by MTT assay. It counts as functional, cell-based. The note with it: MCF7, 48 h.
The nature of data set [5]: Binding affinity to DNA (unknown origin) assessed as hypochromism after 1 hr by UV-Vis absorption spectrophotometric analysis.
Data set [6] in a line: Cytotoxicity against human HeLa cells assessed as reduction in cell viability after 48 hrs by MTT assay. Format: functional, cell-based.
Data set [7] is described as follows: Cytotoxicity against human HCT116 cells assessed as reduction in cell viability after 48 hrs by MTT assay. Format: functional, cell-based. The following applies: HCT-116, 48 h.
The test system of data set [8] is HEK293. Described as §1. The following applies: Homo sapiens. It counts as functional.
The nature of data set [9]: Cytotoxicity against human A549 cells assessed as reduction in cell viability after 48 hrs by MTT assay. Format: functional, cell-based. The following applies: A549, 48 h.
Data set [10] deals with HEK293. Put plainly: Potency index, ratio of etoposide LC50 to compound LC50 for anticlonogenic activity in HEK293 cells. It counts as functional, Homo sapiens.
The subject of data set [11] is HEK293. Put plainly: (§2) Anticlonogenic activity against HEK293 cells assessed as inhibition of colony formation incubated for 48 hrs measured after 6 days by crystal violet staining based assay. Format: functional. The following applies: Homo sapiens.
A short description of data set [12]: as §2. Format: functional. The note with it: Homo sapiens, read-out: LC50 (the source's name).
Data set [13] in a line: Cytotoxicity against human H357 cells assessed as reduction in cell viability after 48 hrs by MTT assay. It counts as functional, cell-based. The following applies: H357, 48 h.
The species named for another data set is Bos taurus. As to the kind of experiment: Binding affinity to calf thymus DNA assessed as DNA intercalation by measuring conformational changes at 100 uM after 2 hrs by CD spectroscopic analysis.

Sequence of DNA topoisomerase 2-alpha (Homo sapiens) (P11388 whole entry): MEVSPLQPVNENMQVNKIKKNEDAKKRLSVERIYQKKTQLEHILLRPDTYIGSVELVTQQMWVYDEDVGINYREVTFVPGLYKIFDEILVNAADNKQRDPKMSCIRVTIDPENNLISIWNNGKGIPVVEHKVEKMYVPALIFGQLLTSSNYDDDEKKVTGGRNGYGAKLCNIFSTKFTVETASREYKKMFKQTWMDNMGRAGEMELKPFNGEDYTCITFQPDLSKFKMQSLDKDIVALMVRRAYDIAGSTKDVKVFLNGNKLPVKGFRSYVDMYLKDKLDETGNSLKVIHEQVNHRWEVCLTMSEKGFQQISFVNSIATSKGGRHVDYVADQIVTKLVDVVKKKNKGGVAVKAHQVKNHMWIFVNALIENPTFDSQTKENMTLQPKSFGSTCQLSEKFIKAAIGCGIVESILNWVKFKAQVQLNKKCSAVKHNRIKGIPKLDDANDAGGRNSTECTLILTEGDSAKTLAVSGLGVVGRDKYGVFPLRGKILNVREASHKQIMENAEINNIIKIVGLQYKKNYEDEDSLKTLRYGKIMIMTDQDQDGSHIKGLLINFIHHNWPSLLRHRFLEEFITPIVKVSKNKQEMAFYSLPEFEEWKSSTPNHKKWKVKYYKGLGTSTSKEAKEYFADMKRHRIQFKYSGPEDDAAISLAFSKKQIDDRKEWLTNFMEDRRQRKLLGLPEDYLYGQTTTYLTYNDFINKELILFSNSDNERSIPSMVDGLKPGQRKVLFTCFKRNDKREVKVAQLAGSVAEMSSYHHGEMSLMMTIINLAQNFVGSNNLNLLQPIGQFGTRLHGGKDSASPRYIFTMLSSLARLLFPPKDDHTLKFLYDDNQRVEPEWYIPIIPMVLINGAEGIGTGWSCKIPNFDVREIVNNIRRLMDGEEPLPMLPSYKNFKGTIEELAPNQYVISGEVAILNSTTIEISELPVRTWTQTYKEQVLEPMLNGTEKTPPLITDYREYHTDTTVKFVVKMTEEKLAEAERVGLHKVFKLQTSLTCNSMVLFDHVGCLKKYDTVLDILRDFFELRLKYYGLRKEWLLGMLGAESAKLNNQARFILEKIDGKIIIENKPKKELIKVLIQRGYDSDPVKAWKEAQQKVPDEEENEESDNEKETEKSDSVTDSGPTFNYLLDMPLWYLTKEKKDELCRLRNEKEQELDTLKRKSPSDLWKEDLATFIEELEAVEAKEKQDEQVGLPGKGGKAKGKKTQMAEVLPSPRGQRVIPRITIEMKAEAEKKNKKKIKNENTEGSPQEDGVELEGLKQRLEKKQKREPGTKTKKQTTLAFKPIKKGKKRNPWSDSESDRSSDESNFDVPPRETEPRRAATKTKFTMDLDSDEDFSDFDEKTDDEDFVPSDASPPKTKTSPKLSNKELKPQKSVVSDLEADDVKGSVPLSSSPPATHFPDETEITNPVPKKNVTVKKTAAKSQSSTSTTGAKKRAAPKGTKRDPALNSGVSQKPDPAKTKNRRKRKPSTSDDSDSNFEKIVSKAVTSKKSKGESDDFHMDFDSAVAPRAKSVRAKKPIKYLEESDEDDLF

Consider `O=c1cc(-c2ccc(O)c(O)c2)nc2ccccn12`, for which the CC50 at 48 h in data set [1] came to 32 µM. In data set [2], the CC50 is 13 µM. The “Topoisomerase 2-alpha inhibition (active/inactive)” value in [3] is “Active”.
`COc1cccc(-c2cnc3ccccn3c2=O)c1`: in data set [1], the CC50 at 48 h was 46 µM. For the same compound, in [2], the CC50 was 9 µM. Also, the “Topoisomerase 2-alpha inhibition (active/inactive)” value in [3] was “Active”.
Taken in the same sequence, the figures for `O=c1cc(-c2ccc3c(c2)OCO3)nc2ccccn12` were 52 µM, 15.5 µM and “Active”.
The IC50 is the midpoint of a concentration-inhibition curve. Turning to `O=Cc1ccc(-c2cc(=O)n3ccccc3n2)cc1`, the IC50 in data set [4] was 2.5 µM; in [6], 3 µM; in data set [7] it was 3.5 µM; in [9] it was 2.4 µM; in data set [13] it was 2.5 µM. For the same compound, the result in [5] was Active. Besides, the CC50 at 48 h in data set [1] came to 48 µM. Moreover, the Activity result (in data set [1]; in the data set with HEK293 [8]) was “Dose-dependent effect” throughout. Besides, the CC50 came to 3 µM in data set [2] and 2.5 µM in data set [12]. Further, in the data set on HEK293 [10], the RatioLC50 was 5 - 10. In addition, the “Topoisomerase 2-alpha inhibition (active/inactive)” value in [3] was “Active”. The inhibition result with HEK293 [11] is “Dose-dependent effect”.
In the case of `COc1cc(-c2cc(=O)n3ccccc3n2)cc(OC)c1OC`, in data set [5], the outcome was Active. Further, the CC50 at 48 h in data set [1] stood at 46 µM. In addition, the CC50 in [2] came out at 9 µM. In data set [3], the “Topoisomerase 2-alpha inhibition (active/inactive)” value is “Active”.
As for `COc1ccc(-c2cnc3ccccn3c2=O)cc1`, the CC50 at 48 h in data set [1] was found to be 38 µM. The CC50 in [2] came out at 19 µM. In data set [3], the “Topoisomerase 2-alpha inhibition (active/inactive)” value was “Active”.
The like results for `O=c1c(-c2ccc(O)c(O)c2)cnc2ccccn12` were, in that order, 38 µM, 9 µM and “Active”.
As for `Cc1ccc(-c2cnc3ccccn3c2=O)cc1`, the half-inhibitory concentration (IC50) in [4] stood at 4 µM; in data set [6], 3 µM; in data set [7], 2.5 µM; in data set [9] it was 2.5 µM; in data set [13], 2.8 µM. Also, the CC50 at 48 h in data set [1] was determined as 44 µM. The Activity result (in data set [1]; in the data set with HEK293 [8]) was “Dose-dependent effect” throughout. Further, the CC50 in data set [2] was 3.5 µM; in data set [12], 2.5 µM. Further, the RatioLC50 in the data set with HEK293 [10] is on record as 5 - 10. In data set [3], the “Topoisomerase 2-alpha inhibition (active/inactive)” value is “Active”. Further, the inhibition entry with HEK293 [11] was “Dose-dependent effect”.
Consider `O=c1cc(-c2ccc3c(c2)OCO3)oc2ccccc12`, for which the CC50 at 48 h in data set [1] amounted to 48 µM. Besides, the CC50 in data set [2] amounted to 8 µM. The “Topoisomerase 2-alpha inhibition (active/inactive)” value in [3] was “Active”.
On to `O=c1c(-c2ccccc2)cnc2c(OCc3ccccc3)cccn12`, for which the IC50 worked out at 2 µM in data set [4]; 1.5 µM in data set [6]; 3 µM in data set [7]; 2 µM in data set [9]; 3 µM in data set [13]. In addition, the CC50 at 48 h in data set [1] was 60 µM. Moreover, the Activity entry (in data set [1]; in the data set with HEK293 [8]) was “Dose-dependent effect” throughout. In addition, the values for the CC50 in data set [2] and in data set [12] were 3 µM and 3.8 µM, respectively. Also, in the data set on HEK293 [10], the RatioLC50 is recorded as 5 - 10. Besides, in [3], the “Topoisomerase 2-alpha inhibition (active/inactive)” value is “Active”. Besides, the inhibition entry in the data set on HEK293 [11] was “Dose-dependent effect”.
With `COc1cc(-c2cnc3ccccn3c2=O)cc(OC)c1OC`, the half-inhibitory concentration (IC50) in [4] stood at 3 µM; in data set [6], 2.8 µM; in data set [7] it was 3.2 µM; in [9] it was 2.1 µM; in data set [13], 3 µM. Further, the CC50 at 48 h in [1] worked out at 40 µM. The Activity result (in data set [1]; in the data set with HEK293 [8]) was “Dose-dependent effect” in each case. Further, the CC50 in data set [2] came out at 3 µM; in data set [12] it was 1.8 µM. In addition, the RatioLC50 in the data set on HEK293 [10] is listed as 5 - 10. Also, the “Topoisomerase 2-alpha inhibition (active/inactive)” value in [3] is “Active”. In the data set with HEK293 [11], the inhibition result is “Dose-dependent effect”.
On to `COc1ccc(-c2cc(=O)n3ccccc3n2)cc1OC`, for which the CC50 at 48 h in [1] turned out to be 50 µM. Besides, in data set [2], the CC50 came to 17 µM. Moreover, in data set [3], the “Topoisomerase 2-alpha inhibition (active/inactive)” value is “Active”.
With `COc1ccc(-c2cc(=O)n3ccccc3n2)cc1`, in data set [1], the CC50 at 48 h turned out to be 60 µM. The CC50 in data set [2] came out at 8 µM. Further, the “Topoisomerase 2-alpha inhibition (active/inactive)” value in data set [3] is “Active”.
Regarding `COc1cc(-c2coc3ccccc3c2=O)cc(OC)c1OC`, the CC50 at 48 h in [1] came out at 50 µM. The CC50 in data set [2] is 10 µM. The “Topoisomerase 2-alpha inhibition (active/inactive)” value in data set [3] is “Active”.
Turning to `COc1ccc(-c2cc(=O)c3ccccc3o2)cc1` [4'-METHOXYFLAVONE], in data set [1], the CC50 at 48 h was 45 µM. Further, in data set [2], the CC50 is 8.5 µM. For the same compound, in [3], the “Topoisomerase 2-alpha inhibition (active/inactive)” value was “Active”.
Taken in the same sequence, the figures for `Cc1ccc(-c2coc3ccccc3c2=O)cc1` were 48 µM, 8 µM and “Active”.
As to `CC[n+]1c(-c2ccccc2)c2cc(N)ccc2c2ccc(N)cc21`, the outcome in the data set filed under Bos taurus was Active.
On to `O=c1c(-c2cc(O)cc(O)c2)cnc2ccccn12`, for which the IC50 in data set [4] was 2 µM; in data set [6], 1.5 µM; in [7] it was 3 µM; in data set [9] it was 2.8 µM; in [13], 3 µM. In [1], the CC50 at 48 h came to 50 µM. In addition, the Activity entry (in data set [1]; in the data set with HEK293 [8]) was “Dose-dependent effect” throughout. Moreover, the CC50 in data set [2] came to 2 µM; in data set [12], 2.4 µM. Besides, the RatioLC50 with HEK293 [10] is listed as 5 - 10. Also, the “Topoisomerase 2-alpha inhibition (active/inactive)” value in data set [3] was “Active”. Besides, the inhibition entry in the data set with HEK293 [11] was “Dose-dependent effect”.
On to `O=c1c(-c2cccc3ccccc23)cnc2ccccn12`, for which the CC50 at 48 h in [1] was 60 µM. The CC50 in [2] worked out at 7 µM. In addition, the “Topoisomerase 2-alpha inhibition (active/inactive)” value in [3] was “Active”.
Taken in the same sequence, the figures for `O=c1c(-c2cccc3ccccc23)coc2ccccc12` were 42 µM, 12 µM and “Active”.
On to `COc1ccc(-c2coc3ccccc3c2=O)cc1`, for which the CC50 at 48 h in data set [1] came to 52 µM. Further, the CC50 in [2] came out at 12 µM.
For the compound `COc1cc([C@@H]2c3cc4c(cc3[C@@H](O[C@@H]3O[C@@H]5CO[C@@H](C)O[C@H]5[C@H](O)[C@H]3O)[C@H]3COC(=O)[C@H]23)OCO4)cc(OC)c1O` [ETOPOSIDE], the CC50 at 48 h in data set [1] came out at 55 µM. In addition, the CC50 in data set [2] came out at 22 µM; in [12], 20 µM. Also, in data set [3], the “Topoisomerase 2-alpha inhibition (active/inactive)” value is “Active”.
`O=c1c(-c2cccc(O)c2)cnc2ccccn12`: the CC50 at 48 h in [1] worked out at 52 µM. Besides, the CC50 in data set [2] amounted to 6 µM. Further, the “Topoisomerase 2-alpha inhibition (active/inactive)” value in [3] is “Active”.
As for `COc1cc(-c2cc(=O)c3ccccc3o2)cc(OC)c1OC`, the CC50 at 48 h in data set [1] was 52 µM. Also, in [2], the CC50 turned out to be 12 µM. Moreover, the “Topoisomerase 2-alpha inhibition (active/inactive)” value in data set [3] is “Active”.
Taken in the same sequence, the figures for `O=c1c(-c2ccc3c(c2)OCO3)cnc2ccccn12` were 48 µM, 15 µM and “Active”.
